Tested on: 377384-186-R-J1-PDC complex spheroid viability
Assay: Anticancer human tumor 377384-186-R-J1-PDC patient-derived pancreatic carcinoma cell line growth inhibition [RAS]
Details: for IC50: curve of first compound; for viability, T/C: stronger effect = lower value
Outline: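 Multi-cell-type spheroids: tumor cells plus HUVEC endothelial cells and mesenchymal stem cells. RAS-pathway inhibitors were combined with targeted agents, each dosed in half-log steps down from clinical Cmax, or from 10 microM when Cmax was unknown.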

[1] = second compound 0.000949 µM, first compound 0.00316 µM
[2] = second compound 0.000949 µM, first compound 0.01 µM
[3] = second compound 0.000949 µM, first compound 0.0316 µM
[4] = second compound 0.000949 µM, first compound 0.1 µM
[5] = second compound 0.000949 µM, first compound 0.316 µM
[6] = second compound 0.000949 µM, first compound 1 µM
[7] = second compound 0.003 µM, first compound 0.00316 µM
[8] = second compound 0.003 µM, first compound 0.01 µM
[9] = second compound 0.003 µM, first compound 0.0316 µM
[10] = second compound 0.003 µM, first compound 0.1 µM
[11] = second compound 0.003 µM, first compound 0.316 µM
[12] = second compound 0.003 µM, first compound 1 µM
[13] = second compound 0.00949 µM, first compound 0.00316 µM
[14] = second compound 0.00949 µM, first compound 0.01 µM
[15] = second compound 0.00949 µM, first compound 0.0316 µM
[16] = second compound 0.00949 µM, first compound 0.1 µM
[17] = second compound 0.00949 µM, first compound 0.316 µM
[18] = second compound 0.00949 µM, first compound 1 µM
[19] = second compound 0.03 µM, first compound 0.00316 µM
[20] = second compound 0.03 µM, first compound 0.01 µM
[21] = second compound 0.03 µM, first compound 0.0316 µM
[22] = second compound 0.03 µM, first compound 0.1 µM
[23] = second compound 0.03 µM, first compound 0.316 µM
[24] = second compound 0.03 µM, first compound 1 µM
[25] = second compound 0.0949 µM, first compound 0.00316 µM
[26] = second compound 0.0949 µM, first compound 0.01 µM
[27] = second compound 0.0949 µM, first compound 0.0316 µM
[28] = second compound 0.0949 µM, first compound 0.1 µM
[29] = second compound 0.0949 µM, first compound 0.316 µM
[30] = second compound 0.0949 µM, first compound 1 µM
[31] = second compound 0.3 µM, first compound 0.00316 µM
[32] = second compound 0.3 µM, first compound 0.01 µM
[33] = second compound 0.3 µM, first compound 0.0316 µM
[34] = second compound 0.3 µM, first compound 0.1 µM
[35] = second compound 0.3 µM, first compound 0.316 µM
[36] = second compound 0.3 µM, first compound 1 µM
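Note: spheroids exposed to compounds for seven days before readout.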

C=CC(=O)Nc1cc(Nc2nccc(-c3cn(C)c4ccccc34)n2)c(OC)cc1N(C)CCN(C)C + CCn1c(-c2cc(N3CCN(C)CC3)cnc2C(C)OC)c2c3cc(ccc31)-c1csc(n1)CC(NC(=O)C1CC1C)C(=O)N1CCCC(N1)C(=O)OCC(C)(C)C2
IC50 (second compound 0.000949 µM): < 3.16 nM
IC50 (second compound 0.003 µM): < 3.16 nM
IC50 (second compound 0.00949 µM): < 3.16 nM
IC50 (second compound 0.03 µM): < 3.16 nM
IC50 (second compound 0.0949 µM): < 3.16 nM
IC50 (second compound 0.3 µM): < 3.16 nM
viability, T/C [1]: 30%
viability, T/C [2]: 45%
viability, T/C [3]: 32.3%
viability, T/C [4]: 27.5%
viability, T/C [5]: 12.1%
viability, T/C [6]: 4.35%
viability, T/C [7]: 17.5%
viability, T/C [8]: 17.3%
viability, T/C [9]: 11.2%
viability, T/C [10]: 4.88%
viability, T/C [11]: 2.22%
viability, T/C [12]: 1.8%
viability, T/C [13]: 4.04%
viability, T/C [14]: 11%
viability, T/C [15]: 3.16%
viability, T/C [16]: 3.12%
viability, T/C [17]: 1.55%
viability, T/C [18]: 1.78%
viability, T/C [19]: 2.43%
viability, T/C [20]: 1.94%
viability, T/C [21]: 1.75%
viability, T/C [22]: 2.15%
viability, T/C [23]: 2.02%
viability, T/C [24]: 1.52%
viability, T/C [25]: 2.3%
viability, T/C [26]: 1.82%
viability, T/C [27]: 1.99%
viability, T/C [28]: 2.1%
viability, T/C [29]: 1.5%
viability, T/C [30]: 0.91%
viability, T/C [31]: 2.2%
viability, T/C [32]: 1.68%
viability, T/C [33]: 1.82%
viability, T/C [34]: 1.46%
viability, T/C [35]: 1.28%
viability, T/C [36]: 0.91%

CC(Nc1ccc2c(c1)OCCn1cc(N3C(=O)OCC3C(F)F)nc1-2)C(N)=O (stereo unspecified) + CCn1c(-c2cc(N3CCN(C)CC3)cnc2C(C)OC)c2c3cc(ccc31)-c1csc(n1)CC(NC(=O)C1CC1C)C(=O)N1CCCC(N1)C(=O)OCC(C)(C)C2
IC50 (second compound 0.000949 µM): < 31.6 nM
IC50 (second compound 0.003 µM): < 31.6 nM
IC50 (second compound 0.00949 µM): < 31.6 nM
IC50 (second compound 0.03 µM): < 31.6 nM
IC50 (second compound 0.0949 µM): < 31.6 nM
IC50 (second compound 0.3 µM): < 31.6 nM
viability, T/C [3]: 38.5%
viability, T/C [4]: 27%
viability, T/C [5]: 20.7%
viability, T/C [6]: 14.9%
viability, T/C (second compound 0.000949 µM, first compound 3.16 µM): 15.3%
viability, T/C (second compound 0.000949 µM, first compound 10 µM): 10%
viability, T/C [9]: 16.6%
viability, T/C [10]: 13.9%
viability, T/C [11]: 6.73%
viability, T/C [12]: 6.02%
viability, T/C (second compound 0.003 µM, first compound 3.16 µM): 4.06%
viability, T/C (second compound 0.003 µM, first compound 10 µM): 4.35%
viability, T/C [15]: 4.34%
viability, T/C [16]: 2.53%
viability, T/C [17]: 3.61%
viability, T/C [18]: 1.94%
viability, T/C (second compound 0.00949 µM, first compound 3.16 µM): 1.23%
viability, T/C (second compound 0.00949 µM, first compound 10 µM): 0.59%
viability, T/C [21]: 1.88%
viability, T/C [22]: 1.58%
viability, T/C [23]: 0.84%
viability, T/C [24]: 0.45%
viability, T/C (second compound 0.03 µM, first compound 3.16 µM): 0.4%
viability, T/C (second compound 0.03 µM, first compound 10 µM): 0.18%
viability, T/C [27]: 1.11%
viability, T/C [28]: 0.55%
viability, T/C [29]: 0.59%
viability, T/C [30]: 0.36%
viability, T/C (second compound 0.0949 µM, first compound 3.16 µM): 0.09%
viability, T/C (second compound 0.0949 µM, first compound 10 µM): 0.09%
viability, T/C [33]: 1.13%
viability, T/C [34]: 0.5%
viability, T/C [35]: 0.4%
viability, T/C [36]: 0.29%
viability, T/C (second compound 0.3 µM, first compound 3.16 µM): 0.21%
viability, T/C (second compound 0.3 µM, first compound 10 µM): 0.14%

O=C(c1ccc(F)c(F)c1Nc1ccc(I)cc1F)N1CC(O)([C@@H]2CCCCN2)C1 + CCn1c(-c2cc(N3CCN(C)CC3)cnc2C(C)OC)c2c3cc(ccc31)-c1csc(n1)CC(NC(=O)C1CC1C)C(=O)N1CCCC(N1)C(=O)OCC(C)(C)C2
IC50 (second compound 0.000949 µM): < 3.16 nM
IC50 (second compound 0.003 µM): < 3.16 nM
IC50 (second compound 0.00949 µM): < 3.16 nM
IC50 (second compound 0.03 µM): < 3.16 nM
IC50 (second compound 0.0949 µM): < 3.16 nM
IC50 (second compound 0.3 µM): < 3.16 nM
viability, T/C [1]: 40.6%
viability, T/C [2]: 28.1%
viability, T/C [3]: 9.77%
viability, T/C [4]: 2.04%
viability, T/C [5]: 0.28%
viability, T/C [6]: 0.8%
viability, T/C [7]: 16.4%
viability, T/C [8]: 4.75%
viability, T/C [9]: 3.32%
viability, T/C [10]: 1.15%
viability, T/C [11]: 0.17%
viability, T/C [12]: 0.13%
viability, T/C [13]: 3.22%
viability, T/C [14]: 2.06%
viability, T/C [15]: 1.32%
viability, T/C [16]: 0.24%
viability, T/C [17]: 0.08%
viability, T/C [18]: 0.13%
viability, T/C [19]: 2.61%
viability, T/C [20]: 1.37%
viability, T/C [21]: 0.71%
viability, T/C [22]: 0.07%
viability, T/C [23]: 0.12%
viability, T/C [24]: 0.09%
viability, T/C [25]: 1.11%
viability, T/C [26]: 0.96%
viability, T/C [27]: 0.28%
viability, T/C [28]: 0.12%
viability, T/C [29]: 0.15%
viability, T/C [30]: 0.18%
viability, T/C [31]: 1.01%
viability, T/C [32]: 1.34%
viability, T/C [33]: 0.16%
viability, T/C [34]: 0.2%
viability, T/C [35]: 0.28%
viability, T/C [36]: 0.18%
